# Article PMC7413254 (Nature Communications, 2020)
# How the values were obtained:
# non-expressing oocytes = assay: cells; format: cell-based, Xenopus laevis
# Method in brief: (§1)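 PfCRT-expressing and control oocytes: ND96 pH 5.5 → 1.5 h at 27.5 °C → ice-cold ND96 wash → 10% SDS lysis → scintillation count.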
# PfCRT^Dd2 [1] = target: T1, PfCRT^Dd2 (Plasmodium falciparum, UniProt Q9N623, A220S/I356T/K76T/M74I/N326S/N75E/Q271E/R371I); assay: [3H]CQ uptake into Xenopus oocytes, cis-inhibition by unlabelled solute; format: cell-based; settings: PfCRTEcu1110 and PfCRTDd2
# Method in brief: as §1
# PfCRT^Dd2 [2] = target: T1, PfCRT^Dd2; assay: cell-based; format: cell-based; settings: PfCRTDd2; mean ± SEM, n = 5; SEM
# Method in brief: (§2)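 Transport measured in Xenopus oocytes expressing the transporters, 1.5 h at 27.5 °C in ND96 pH 5.5 unless noted. For trans-stimulation, VF-6 injected in 25 nL ND96 at pH 5.0–7.0 or Na^+-free (choline) buffer; intracellular levels based on ~400 nL oocyte volume. Ten oocytes per treatment, ≥4 experiments.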
# PfCRT^3D7 = PfCRT^3D7 (Plasmodium falciparum, UniProt Q8IBZ9); assay: cell-based; format: cell-based; settings: for [3H]CQ transport, PfCRT3D7 (% PfCRT3D7 control): trans-stimulation, solute 45 mM injected (estimated intracellular)
# Method in brief: as §2
# PfNT1 = target: T2, PfNT1 (Plasmodium falciparum, UniProt Q8IDM6); assay: cell-based; format: cell-based; settings: trans-stimulation, solute 45 mM injected (estimated intracellular)
# T2 construct: expressed in transfected cells; host or cells: Xenopus laevis oocytes (stage V-VI), cRNA-injected
# Method in brief: as §2
# PfCRT^Ecu1110 = PfCRT^Ecu1110 (Plasmodium falciparum, UniProt Q9N623, A220S/I356L/K76T/N326D); assay: cell-based; format: cell-based; settings: PfCRTEcu1110; mean ± SEM, n = 5; SEM
# Method in brief: as §2
# Sequence of PfCRT^3D7 (Q8IBZ9 59-398): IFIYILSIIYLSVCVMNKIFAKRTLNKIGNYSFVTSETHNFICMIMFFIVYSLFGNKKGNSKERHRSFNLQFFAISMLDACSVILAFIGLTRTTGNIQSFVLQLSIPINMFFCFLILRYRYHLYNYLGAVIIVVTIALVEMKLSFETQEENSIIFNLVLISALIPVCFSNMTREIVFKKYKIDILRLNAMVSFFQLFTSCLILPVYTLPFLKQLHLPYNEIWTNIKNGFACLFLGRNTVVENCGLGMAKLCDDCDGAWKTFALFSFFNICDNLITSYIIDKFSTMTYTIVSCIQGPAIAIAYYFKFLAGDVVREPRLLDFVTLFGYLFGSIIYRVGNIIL
# T2 sequence (Q8IDM6 whole entry): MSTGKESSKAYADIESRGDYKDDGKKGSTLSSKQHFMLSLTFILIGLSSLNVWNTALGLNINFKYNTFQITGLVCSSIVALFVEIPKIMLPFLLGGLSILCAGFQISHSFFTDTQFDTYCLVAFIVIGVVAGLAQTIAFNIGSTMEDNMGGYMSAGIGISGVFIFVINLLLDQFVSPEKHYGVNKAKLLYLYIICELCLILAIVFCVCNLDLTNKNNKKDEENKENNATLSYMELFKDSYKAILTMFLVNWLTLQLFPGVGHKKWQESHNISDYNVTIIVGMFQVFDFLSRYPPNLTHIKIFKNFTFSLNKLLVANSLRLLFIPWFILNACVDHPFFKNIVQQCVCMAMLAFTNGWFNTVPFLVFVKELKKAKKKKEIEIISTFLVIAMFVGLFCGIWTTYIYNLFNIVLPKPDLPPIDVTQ
# T1 sequence (Q9N623 whole entry A220S/I356T/K76T/M74I/N326S/N75E/Q271E/R371I): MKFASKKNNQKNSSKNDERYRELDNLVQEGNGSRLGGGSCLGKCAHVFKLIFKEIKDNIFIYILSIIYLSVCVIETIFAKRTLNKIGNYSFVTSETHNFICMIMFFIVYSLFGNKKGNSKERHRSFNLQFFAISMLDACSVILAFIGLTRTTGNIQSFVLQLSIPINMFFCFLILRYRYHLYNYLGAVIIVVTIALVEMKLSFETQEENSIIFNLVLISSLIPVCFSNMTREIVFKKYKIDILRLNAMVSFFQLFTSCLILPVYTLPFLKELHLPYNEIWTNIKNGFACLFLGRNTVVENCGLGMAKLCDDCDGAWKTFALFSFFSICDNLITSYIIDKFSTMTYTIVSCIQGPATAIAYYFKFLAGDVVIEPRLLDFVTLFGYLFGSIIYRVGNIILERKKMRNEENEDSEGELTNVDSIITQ
# Sequence of PfCRT^Ecu1110 (Q9N623 whole entry A220S/I356L/K76T/N326D): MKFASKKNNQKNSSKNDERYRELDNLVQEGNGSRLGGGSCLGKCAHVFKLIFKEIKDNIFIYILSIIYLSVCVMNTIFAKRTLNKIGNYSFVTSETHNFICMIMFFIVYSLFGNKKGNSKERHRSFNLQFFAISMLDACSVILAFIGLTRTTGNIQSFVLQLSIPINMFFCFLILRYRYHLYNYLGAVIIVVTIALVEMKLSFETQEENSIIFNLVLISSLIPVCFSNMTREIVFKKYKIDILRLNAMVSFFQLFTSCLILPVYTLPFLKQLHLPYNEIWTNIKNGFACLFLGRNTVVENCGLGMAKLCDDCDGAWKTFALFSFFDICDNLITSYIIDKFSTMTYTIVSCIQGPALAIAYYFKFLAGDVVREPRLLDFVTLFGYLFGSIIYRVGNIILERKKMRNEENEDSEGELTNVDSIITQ
smiles,measurement,setting,value
"CCN(CC)CCCC(C)Nc1ccnc2cc(Cl)ccc12 (stereo not shown) [CQ, chloroquine, reference compound]","[3H]CQ transport, non-expressing oocytes","non-expressing oocytes; 0 mM Ca2+, Experiment 1",3.74 % PfCRTDd2 control
same,"[3H]CQ transport, non-expressing oocytes","non-expressing oocytes; 0 mM Ca2+, Experiment 2",3.63 % PfCRTDd2 control
same,"[3H]CQ transport, non-expressing oocytes","non-expressing oocytes; 0 mM Ca2+, Experiment 3",4.25 % PfCRTDd2 control
same,"[3H]CQ transport, non-expressing oocytes","non-expressing oocytes; 0 mM Ca2+, Experiment 4",3.26 % PfCRTDd2 control
same,"[3H]CQ transport, non-expressing oocytes","non-expressing oocytes; 0 mM Cl-, Experiment 1",4.15 % PfCRTDd2 control
same,"[3H]CQ transport, non-expressing oocytes","non-expressing oocytes; 0 mM Cl-, Experiment 2",3.26 % PfCRTDd2 control
same,"[3H]CQ transport, non-expressing oocytes","non-expressing oocytes; 0 mM Cl-, Experiment 3",3.11 % PfCRTDd2 control
same,"[3H]CQ transport, non-expressing oocytes","non-expressing oocytes; 0 mM Cl-, Experiment 4",3.85 % PfCRTDd2 control
same,"[3H]CQ transport, non-expressing oocytes","non-expressing oocytes; 0 mM Na+, Experiment 1",3.84 % PfCRTDd2 control
same,"[3H]CQ transport, non-expressing oocytes","non-expressing oocytes; 0 mM Na+, Experiment 2",3.27 % PfCRTDd2 control
same,"[3H]CQ transport, non-expressing oocytes","non-expressing oocytes; 0 mM Na+, Experiment 3",3.36 % PfCRTDd2 control
same,"[3H]CQ transport, non-expressing oocytes","non-expressing oocytes; 0 mM Na+, Experiment 4",3.51 % PfCRTDd2 control
same,"[3H]CQ transport, non-expressing oocytes","non-expressing oocytes; 1 mM Ca2+, Experiment 1",3.79 % PfCRTDd2 control
same,"[3H]CQ transport, non-expressing oocytes","non-expressing oocytes; 1 mM Ca2+, Experiment 2",4.21 % PfCRTDd2 control
same,"[3H]CQ transport, non-expressing oocytes","non-expressing oocytes; 1 mM Ca2+, Experiment 3",3.27 % PfCRTDd2 control
same,"[3H]CQ transport, non-expressing oocytes","non-expressing oocytes; 1 mM Ca2+, Experiment 4",3.32 % PfCRTDd2 control
same,"[3H]CQ transport, non-expressing oocytes","non-expressing oocytes; 3 mM Ca2+, Experiment 1",3.39 % PfCRTDd2 control
same,"[3H]CQ transport, non-expressing oocytes","non-expressing oocytes; 3 mM Ca2+, Experiment 2",3.63 % PfCRTDd2 control
same,"[3H]CQ transport, non-expressing oocytes","non-expressing oocytes; 3 mM Ca2+, Experiment 3",3.89 % PfCRTDd2 control
same,"[3H]CQ transport, non-expressing oocytes","non-expressing oocytes; 3 mM Ca2+, Experiment 4",3.96 % PfCRTDd2 control
same,"[3H]CQ transport, non-expressing oocytes","non-expressing oocytes; 5 mM Ca2+, Experiment 1",3.68 % PfCRTDd2 control
same,"[3H]CQ transport, non-expressing oocytes","non-expressing oocytes; 5 mM Ca2+, Experiment 2",3.26 % PfCRTDd2 control
same,"[3H]CQ transport, non-expressing oocytes","non-expressing oocytes; 5 mM Ca2+, Experiment 3",3.94 % PfCRTDd2 control
same,"[3H]CQ transport, non-expressing oocytes","non-expressing oocytes; 5 mM Ca2+, Experiment 4",3.67 % PfCRTDd2 control
same,"[3H]CQ transport, non-expressing oocytes","non-expressing oocytes; Control, Experiment 1, Supp Fig. 2b",3.53 % PfCRTDd2 control
same,"[3H]CQ transport, non-expressing oocytes","non-expressing oocytes; Control, Experiment 1, Supp Fig. 2f",3.93 % PfCRTDd2 control
same,"[3H]CQ transport, non-expressing oocytes","non-expressing oocytes; Control, Experiment 1, Supp Fig. 2d",3.52 % PfCRTDd2 control
same,"[3H]CQ transport, non-expressing oocytes","non-expressing oocytes; Control, Experiment 2, Supp Fig. 2b",3.62 % PfCRTDd2 control
same,"[3H]CQ transport, non-expressing oocytes","non-expressing oocytes; Control, Experiment 2, Supp Fig. 2f",3.26 % PfCRTDd2 control
same,"[3H]CQ transport, non-expressing oocytes","non-expressing oocytes; Control, Experiment 2, Supp Fig. 2d",3.16 % PfCRTDd2 control
same,"[3H]CQ transport, non-expressing oocytes","non-expressing oocytes; Control, Experiment 3, Supp Fig. 2b",3.28 % PfCRTDd2 control
same,"[3H]CQ transport, non-expressing oocytes","non-expressing oocytes; Control, Experiment 3, Supp Fig. 2f",3.29 % PfCRTDd2 control
same,"[3H]CQ transport, non-expressing oocytes","non-expressing oocytes; Control, Experiment 3, Supp Fig. 2d",3.75 % PfCRTDd2 control
same,"[3H]CQ transport, non-expressing oocytes","non-expressing oocytes; Control, Experiment 4, Supp Fig. 2b",3.81 % PfCRTDd2 control
same,"[3H]CQ transport, non-expressing oocytes","non-expressing oocytes; Control, Experiment 4, Supp Fig. 2f",4.38 % PfCRTDd2 control
same,"[3H]CQ transport, non-expressing oocytes","non-expressing oocytes; Control, Experiment 4, Supp Fig. 2d",3.21 % PfCRTDd2 control
"CC(C)(C)NC(=O)[C@@H]1C[C@@H]2CCCC[C@@H]2CN1C[C@@H](O)[C@H](Cc1ccccc1)NC(=O)[C@H](CC(N)=O)NC(=O)c1ccc2ccccc2n1 [Saquinavir, saquinavir, reference compound]",Cis-inhibition of [3H]CQ transport (in words),PfCRT^Dd2 [1],cis-inhibited
same,App Vmax for the trans-stimulatory effect of the peptide mimic on [3H]CQ transport,PfCRT^Dd2 [2],0.8 ±0.05 pmol/oocyte/h
same,App Vmax for the trans-stimulatory effect of the peptide mimic on [3H]CQ transport,"PfCRT^3D7; PfCRT3D7, mean ± SEM, n = 5, SEM",2.2 ±0.5 pmol/oocyte/h
same,Trans-stimulation of [3H]CQ transport via PfCRT (in words),PfCRT^3D7; PfCRT isoforms as stated in the sentence,trans-stimulated
same,"[3H]CQ transport, PfCRT3D7 (% PfCRT3D7 control)",PfCRT^3D7; Experiment 1,157.43 % PfCRT3D7 control
same,"[3H]CQ transport, PfCRT3D7 (% PfCRT3D7 control)",PfCRT^3D7; Experiment 2,162.15 % PfCRT3D7 control
same,"[3H]CQ transport, PfCRT3D7 (% PfCRT3D7 control)",PfCRT^3D7; Experiment 3,143.46 % PfCRT3D7 control
same,"[3H]CQ transport, PfCRT3D7 (% PfCRT3D7 control)",PfCRT^3D7; Experiment 4,158.34 % PfCRT3D7 control
same,"[3H]CQ transport, PfNT1 (% PfCRTDd2 control)",PfNT1; Experiment 1,2.62 % PfCRTDd2 control
same,"[3H]CQ transport, PfNT1 (% PfCRTDd2 control)",PfNT1; Experiment 2,2.47 % PfCRTDd2 control
same,"[3H]CQ transport, PfNT1 (% PfCRTDd2 control)",PfNT1; Experiment 3,2.54 % PfCRTDd2 control
same,"[3H]CQ transport, PfNT1 (% PfCRTDd2 control)",PfNT1; Experiment 4,2.32 % PfCRTDd2 control
same,App Vmax for the trans-stimulatory effect of the peptide mimic on [3H]CQ transport,PfCRT^Ecu1110,1.6 ±0.2 pmol/oocyte/h
